Structures can show the parent of a compound that is named as a salt.
System: hPSC-SCs
Conditions: not given

Compound | z.score.t
C[C@H]1C(=O)O[C@@H]2CCN3CC=C(COC(=O)[C@](C)(O)[C@]1(C)O)[C@H]23 [Monocrotaline] | 0.5046
Cc1ccsc1/C=C/C1=NCCCN1C [Morantel tartrate] | −0.06439
c1cncc(C2=NCCC2)c1 [Myosmine] | 0.9865
Oc1ccc2c3c1O[C@H]1[C@@H](O)CC[C@@]4(O)[C@@H](C2)N(CC2CCC2)CC[C@]314 [Nalbuphine hydrochloride] | 0.1298
C[C@]12CC[C@H]3[C@@H](CCC4=CC(=O)CC[C@@H]43)[C@@H]1CC[C@@H]2O [Nandrolone] | 1.306
C=C1[C@H]2C[C@@]3([C@@H]1O)[C@@H](C[C@@H]2O)[C@]12[C@@H]4C[C@H]3[C@H]1N(CC)C[C@]4(C)CC[C@@H]2O [Napelline] | 1.178
CN(C)C(=O)Oc1cccc([N+](C)(C)C)c1 [Neostigmine bromide] | 1.018
CNCCC(Oc1ccccc1OC)c1ccccc1 (centres unmarked) [Nisoxetine hydrochloride] | 0.4318
Cl.Cl.c1ccc2c3c([nH]c2c1)C1C2CCC(C4CCCNC42)N1CC3 (centres unmarked) [Nitrarine dihydrochloride] | 0.3022
CCN(CC)CCOC(=O)C1(c2ccc([N+](=O)[O-])cc2)CCCC1.Cl [Nitrocaramiphen hydrochloride] | 1.242

Same assay, conditions: HTS viability of hPSC-SCs in the presence of 30 mM glucose; Prestwick library; Table S4

Compound | z.score.t
Cc1cccc(C)c1OCC(C)N (centres unmarked) [Mexiletine hydrochloride] | 0.6648
CN1CCN2c3ccccc3Cc3ccccc3C2C1 (centres unmarked) [Mianserine hydrochloride] | 0.8279
Clc1ccc(COC(Cn2ccnc2)c2ccc(Cl)cc2Cl)c(Cl)c1 (centres unmarked) [Miconazole] | −1.873
COc1ccc(OC)c(C(O)CNC(=O)CN)c1 (centres unmarked) [Midodrine hydrochloride] | 0.5856
CC#C[C@]1(O)CC[C@H]2[C@@H]3CCC4=CC(=O)CCC4=C3[C@@H](c3ccc(N(C)C)cc3)C[C@@]21C [Mifepristone] | −0.8392
Cc1[nH]c(=O)c(C#N)cc1-c1ccncc1 [Milrinone] | 0.3236
NC(Cn1ccc(=O)c(O)c1)C(=O)O (centres unmarked) [Mimosine] | 0.7491
Cc1cc(-c2ccccc2)nnc1NCCN1CCOCC1 [Minaprine dihydrochloride] | −0.5003
CN(C)c1ccc(O)c2c1C[C@H]1C[C@H]3[C@H](N(C)C)C(O)=C(C(N)=O)C(=O)[C@@]3(O)C(O)=C1C2=O [Minocycline hydrochloride] | −1.319
Nc1cc(N2CCCCC2)nc(N)[n+]1[O-] [Minoxidil] | 0.2479
O=C1c2c(O)ccc(O)c2C(=O)c2c(NCCNCCO)ccc(NCCNCCO)c21 [Mitoxantrone dihydrochloride] | −0.3936
O=C(NCCN1CCOCC1)c1ccc(Cl)cc1 [Moclobemide] | 0.5822
CCc1c(C)[nH]c2c1C(=O)C(CN1CCOCC1)CC2 (centres unmarked) [Molindone hydrochloride] | −0.1759
CCOC(=O)[N-]c1cn(N2CCOCC2)n[o+]1 [Molsidomine] | 0.713
C[C@@H]1C[C@H]2[C@@H]3CCC4=CC(=O)C=C[C@]4(C)[C@@]3(Cl)[C@@H](O)C[C@]2(C)[C@@]1(OC(=O)c1ccco1)C(=O)CCl [Mometasone furoate] | 0.1979
CC[C@@]1([C@@H]2O[C@@H]([C@H]3O[C@@](O)(CO)[C@H](C)C[C@@H]3C)C[C@@H]2C)CC[C@H]([C@]2(C)CC[C@]3(C[C@H](O)[C@@H](C)[C@@H]([C@@H](C)[C@@H](OC)[C@H](C)C(=O)O)O3)O2)O1 [Monensin sodium salt] | −2.299
Oc1ccc(OCc2ccccc2)cc1 [Monobenzone] | 0.557
CCOC(=O)Nc1ccc2c(c1)N(C(=O)CCN1CCOCC1)c1ccccc1S2 [Moricizine hydrochloride] | 0.0827
Cl.N=C(N=C(N)N)N1CCOCC1 [Moroxidine hydrochloride] | 1.464
CO[C@@]1(NC(=O)C(C(=O)O)c2ccc(O)cc2)C(=O)N2C(C(=O)O)=C(CSc3nnnn3C)CO[C@@H]21 (some centres unmarked) [Moxalactam disodium salt] | 0.4105
CC(=O)Oc1cc(C(C)C)c(OCCN(C)C)cc1C.Cl [Moxisylyte hydrochoride] | 0.8757
COc1nc(C)nc(Cl)c1N=C1NCCN1 [Moxonidine] | −0.133
COc1c(C)c2c(c(O)c1C/C=C(\C)CCC(=O)O)C(=O)OC2 [Mycophenolic acid] | −0.7775

Compound | z.score.t
O=c1c(O)c(-c2cc(O)c(O)c(O)c2)oc2cc(O)cc(O)c12 [Myricetin] | 0.713
CNc1ncnc2c1ncn2[C@@H]1O[C@H](CO)[C@@H](O)[C@H]1O [N6-methyladenosine] | 1.002
CC(=O)N[C@@H](CC(C)C)C(=O)O [N-Acetyl-L-leucine] | 0.2361
COc1ccc2cc(CCC(C)=O)ccc2c1 [Nabumetone] | 0.5365
NC(=O)c1ccc[n+]([C@@H]2O[C@H](COP(=O)([O-])OP(=O)(O)OC[C@H]3O[C@@H](n4cnc5c(N)ncnc54)[C@H](O)[C@@H]3O)[C@@H](O)[C@H]2O)c1 [Nadide] | 0.453
CC1CCc2c(N3CCC(O)CC3)c(F)cc3c(=O)c(C(=O)O)cn1c23 (centres unmarked) [Nadifloxacin] | −0.9598
CC(C)(C)NCC(O)COc1cccc2c1CC(O)C(O)C2 (centres unmarked) [Nadolol] | 0.7349
CCOc1ccc2ccccc2c1C(=O)N[C@@H]1C(=O)N2[C@@H]1SC(C)(C)[C@@H]2C(=O)O [Nafcillin sodium salt monohydrate] | 1.323
CCN(CC)CCOC(=O)C(Cc1cccc2ccccc12)CC1CCCO1 (centres unmarked) [Nafronyl oxalate] | 2.094
CN(C/C=C/c1ccccc1)Cc1cccc2ccccc12 [Naftifine hydrochloride] | −1.168
COc1ccccc1N1CCN(CC(O)COc2cccc3ccccc23)CC1 (centres unmarked) [Naftopidil dihydrochloride] | −0.9264
C=CCN1CC[C@]23c4c5ccc(O)c4O[C@H]2C(=O)CC[C@@]3(O)[C@H]1C5 [Naloxone hydrochloride] | 0.84
O=C1CC[C@@]2(O)[C@H]3Cc4ccc(O)c5c4[C@@]2(CCN3CC2CC2)[C@H]1O5 [Naltrexone hydrochloride dihydrate] | 0.754
c1ccc2c(CC3=NCCN3)cccc2c1 [Naphazoline hydrochloride] | 0.7665
COc1ccc2cc([C@H](C)C(=O)O)ccc2c1 [Naproxen] | 1.745
O=C1C[C@@H](c2ccc(O)cc2)Oc2cc(O)cc(O)c21 [Naringenine] | 1.539
C[C@@H]1O[C@@H](O[C@H]2[C@H](Oc3cc(O)c4c(c3)O[C@H](c3ccc(O)cc3)CC4=O)O[C@H](CO)[C@@H](O)[C@@H]2O)[C@H](O)[C@H](O)[C@H]1O [Naringin hydrate] | 1.659
CN1CCOC(c2ccccc2)c2ccccc2C1 (centres unmarked) [Nefopam hydrochloride] | −0.3733
NC[C@@H]1O[C@H](O[C@H]2[C@@H](O)[C@H](O[C@@H]3[C@@H](O)[C@H](N)C[C@H](N)[C@H]3O[C@H]3O[C@H](CN)[C@@H](O)[C@H](O)[C@H]3N)O[C@@H]2CO)[C@H](N)[C@@H](O)[C@@H]1O.O=S(=O)(O)O [Neomycin sulfate] | −0.6492
O=C(O)c1cccnc1 [Niacin] | 0.4105
O=C(CCNNC(=O)c1ccncc1)NCc1ccccc1 [Nialamide] | −0.7018
COC(=O)C1=C(C)NC(C)=C(C(=O)OCCN(C)Cc2ccccc2)C1c1cccc([N+](=O)[O-])c1 (centres unmarked) [Nicardipine hydrochloride] | 0.2189
CO[C@]12C[C@@H](COC(=O)c3cncc(Br)c3)CN(C)[C@@H]1Cc1cn(C)c3cccc2c13 [Nicergoline] | −0.2131

Compound | z.score.t
O=C(Nc1ccc([N+](=O)[O-])cc1Cl)c1cc(Cl)ccc1O [Niclosamide] | −1.794
O=C(NCCO[N+](=O)[O-])c1cccnc1 [Nicorandil] | 0.599
Cc1c(NC(=O)c2cccnc2)c(=O)n(-c2ccccc2)n1C [Nifenazone] | −0.2425
O=C(O)c1cccnc1Nc1cccc(C(F)(F)F)c1 [Niflumic acid] | 0.5856
O=C(N/N=C/c1ccc([N+](=O)[O-])o1)c1ccc(O)cc1 [Nifuroxazide] | 0.8023
CC1CS(=O)(=O)CCN1/N=C/c1ccc([N+](=O)[O-])o1 (centres unmarked) [Nifurtimox] | 1.522
CC1(C)NC(=O)N(c2ccc([N+](=O)[O-])c(C(F)(F)F)c2)C1=O [Nilutamide] | 0.1244
CS(=O)(=O)Nc1ccc([N+](=O)[O-])cc1Oc1ccccc1 [Nimesulide] | 2.111
COCCOC(=O)C1=C(C)NC(C)=C(C(=O)OC(C)C)C1c1cccc([N+](=O)[O-])c1 (centres unmarked) [Nimodipine] | −1.245
O=C1NCCN1c1ncc([N+](=O)[O-])s1 [Niridazole] | 2.422
COC(=O)C1=C(C)NC(C)=C(C(=O)OCC(C)C)C1c1ccccc1[N+](=O)[O-] (centres unmarked) [Nisoldipine] | −0.5992
CCOC(=O)C1=C(C)NC(C)=C(C(=O)OC)C1c1cccc([N+](=O)[O-])c1 (centres unmarked) [Nitrendipine] | 0.6177
NC(=O)N/N=C/c1ccc([N+](=O)[O-])o1 [Nitrofural] | 0.767
O=C1CN(/N=C/c2ccc([N+](=O)[O-])o2)C(=O)N1 [Nitrofurantoin] | −0.03449
CNC(=C[N+](=O)[O-])NCCSCc1csc(CN(C)C)n1 [Nizatidine] | −0.0788
COC(=O)Nc1nc2ccc(C(=O)c3cccs3)cc2[nH]1 [Nocodazole] | −1.329
CC(=O)O[C@]1(C(C)=O)CC[C@H]2[C@@H]3C=C(C)C4=CC(=O)CC[C@@H]4[C@H]3CC[C@@]21C [Nomegestrol acetate] | 0.7296
CN1Cc2c(N)cccc2C(c2ccccc2)C1 (centres unmarked) [Nomifensine maleate] | −0.004573
CNCCC=C1c2ccccc2C=Cc2ccccc21 [Norcyclobenzaprine] | 0.465
C#C[C@]1(O)CC[C@H]2[C@@H]3CCC4=CC(=O)CC[C@@H]4[C@H]3CC[C@@]21C [Norethindrone] | 0.2479
C#C[C@]1(O)CC[C@H]2[C@@H]3CCC4=C(CCC(=O)C4)[C@H]3CC[C@@]21C [Norethynodrel] | 1.857

Source: patent US20260053861A1, “CELL COMPOSITIONS AND METHODS OF USING THE SAME” (THE REGENTS OF THE UNIVERSITY OF CALIFORNIA, priority 2022, published 2026)
